The values that follow come from US7749983B2, “Metabolically stable alkoxyalkyl esters of antiviral or antiproliferative phosphonates, nucleoside phosphonates and nucleoside phosphates” (priority 2006, dated 2010).

Where “and” joins values, the source holds several entries; their conditions need not be identical. Identical values can stand only once. Like-named read-outs stand apart in the source and are kept apart here. A value given as a limit tells only on which side of the number the result lay.

Series [1] relates to Ectromelia Virus (ECTV, MOS strain). Kind of series: microbe, parasite or virus in culture. The series is classed as cell-based.
Series [2] deals with cowpox virus, strain Brighton. Kind of series: microbe, parasite or virus in culture. The series is classed as cell-based. The conditions noted are these: for EC50: read-out: Cowpox Brighton EC50.
A further series deals with HFF cells. Kind of series: Neutral-red uptake assay for toxicity. Conditions: 7 days.
The test system of series [3] is vaccinia virus strain, Copenhagen. Kind of series: microbe, parasite or virus in culture. The series is classed as cell-based. The conditions noted are these: for EC50: read-out: Vaccinia Copenhagen EC50.
The nature of series [4]: Neutral-red uptake assay for toxicity. The conditions noted are these: human, HFF cells.
Another series concerns ectromelia virus (ECTV). More on the design: species or system A/Ncr mice. Conditions: mouse, in vivo; for MDD, Mean day of death / Mortality: po.
Series [5] can be described thus: Metabolic stability testing with human liver S9 fractions. The conditions noted are these: FIG. 3; 37° C., protein 3 mg/mL, compound 1 μM.
A short description of series [6]: Metabolic stability testing with monkey liver S9 fractions. The conditions noted are these: FIG. 3; 37° C., protein 3 mg/mL, compound 1 μM.
The mark [7] stands for this setting: read-out: Ectromelia Virus EC50.

For orientation: EC50 means the midpoint of the concentration-response curve. `CCCCCCCCCCCCCCCCOCCOP(=O)(O)COC(CO)Cn1cnc2c(N)ncnc21` (stereo not shown) [HDE-HPMPA, reference compound]: the EC50 in series [1] (setting [7]) came to 50 nM.
For `CC(C)CCCCCCCCCCCOCCCOP(=O)(O)CO[C@H](CO)Cn1ccc(N)nc1=O` [Compound 12M-TrDP-CDV, 12-methyl-tridecyloxypropyl cidofovir], the figures for the concentration for a half-maximal effect (EC50) in series [2], in series [1] (setting [7]) and in series [3] were 900 nM, 940 nM and 700 nM, respectively. In the series on HFF cells (Table 3, neutral-red uptake), this compound registered a CC50 of 44000 ± 5400 nM.
On to `CCCCCCCCCCCCCCCCCCOCCOP(=O)(O)CO[C@H](CO)Cn1cnc2c(N)ncnc21` [ODE-(S)-HPMPA], for which the values for the EC50 in [2] and in series [3] were 12 nM and 8 nM, respectively. The same compound displayed a CC50 in the series with HFF cells (Table 4, neutral-red uptake) of 2100 nM.
On to `Nc1ccn(C[C@@H](CO)OCP(=O)(O)O)c(=O)n1` [CDV, cidofovir], for which the “Cowpox Brighton SI (Selectivity Index) = CC50/EC50” value in series [2] is >10 and >8.3. For the same compound, the EC50 came to 31000 ± 1700 nM in [2] (Cowpox virus, HFF); 38100 nM in [2]; 19000 ± 9900 nM in series [3] (Orthopoxvirus vaccinia, HFF); 19400 nM in series [3]. In addition, in the series with HFF cells (Table 4, neutral-red uptake), the CC50 is greater than 317000 nM. The compound also gave a CC50 at 7 days in [4] greater than 317000 nM. Besides, the “Vaccinia Copenhagen SI (Selectivity Index) = CC50/EC50” value in series [3] was >17 and >16.
In the case of `CCCCCCCCCCCCCCCCOCCCOP(=O)(O)CO[C@H](CO)Cn1cnc2c(N)ncnc21` [HDP-(S)-HPMPA, reference compound], the EC50 stood at 18 nM in [2] and 10 nM in series [3]. Also, the CC50 in the series on HFF cells (Table 4, neutral-red uptake) was found to be 31800 nM. Also, the figures for the “MDD, Mean day of death” value with ectromelia virus (ECTV) (2.5 mg/kg) and with ectromelia virus (ECTV) (5 mg/kg) were 9.4 and 11, respectively. Also, the figures for the Mortality in the series with ectromelia virus (ECTV) (2.5 mg/kg), with ectromelia virus (ECTV) (5 mg/kg) and in the series on ectromelia virus (ECTV) (10 mg/kg) were 5/5, 1/5 and 0/5, respectively.
As to `CC(C)CCCCCCCCCCCCCCCCOCCOP(=O)(O)CO[C@H](CO)Cn1cnc2c(N)ncnc21` [17M-ODE-(S)-HPMPA, 2-(17-methyloctadecyloxy)ethyl (S)-HPMPA], the EC50 was determined as 11 nM in [2] and 9 nM in [3]. In the series with HFF cells (Table 4, neutral-red uptake), this compound had a CC50 of 800 nM.
As for “14-methyl-pentadecyloxypropyl cidofovir [Compound 14M-PDP-CDV]”, the concentration giving a half-maximal response (EC50) in series [2] amounted to 130 nM; in series [1] (setting [7]), 170 nM; in [3], 140 nM. This compound had a CC50 with HFF cells (Table 3, neutral-red uptake) of 18000 ± 1100 nM. The “MDD, Mean day of death” value in the series on ectromelia virus (ECTV) (2.5 mg/kg) stood at 14. In addition, the figures for the Mortality with ectromelia virus (ECTV) (2.5 mg/kg), in the series with ectromelia virus (ECTV) (5 mg/kg) and with ectromelia virus (ECTV) (10 mg/kg) were 1/5, 0/5 and 0/5, respectively.
With `CC(C)CCCCCCCCCCCCCCOCCCOP(=O)(O)CO[C@H](CO)Cn1ccc(N)nc1=O` [Compound 15M-HDP-CDV, 15-methyl-hexadecyloxypropyl cidofovir], the “degradation by human liver S9 fractions (% of drug remaining versus time), relative to HDP-CDV” value in series [5] is reported as “markedly slower”. Besides, the EC50 amounted to 340 nM in series [2], 40 nM in [1] (setting [7]) and 100 nM in series [3]. In the series on HFF cells (Table 3, neutral-red uptake), this compound returned a CC50 of 15200 ± 5500 nM. In addition, the “degradation by monkey liver S9 fractions (% of drug remaining versus time), relative to HDP-CDV” value in series [6] is listed as “markedly slower”.
`CCCCCCCCCCCCCCCCOCCCOP(=O)(O)CO[C@H](CO)Cn1ccc(N)nc1=O` [HDP-CDV, hexadecyloxypropyl-CDV, reference compound] came in with a CC50 in “in vitro” of 10000 nM. In [2], the “Cowpox Brighton SI (Selectivity Index) = CC50/EC50” value amounted to 470. Besides, the concentration for a half-maximal effect (EC50) is 200 nM in series [2] (Cowpox virus, HFF); 140 nM in [1] (Ectromelia virus, CV-1, read-out: Ectromelia Virus EC50); 200 nM in series [3] (Orthopoxvirus vaccinia, HFF). Also, the CC50 at 7 days in series [4] turned out to be 94000 nM. For the same compound, the “Vaccinia Copenhagen SI (Selectivity Index) = CC50/EC50” value in series [3] worked out at 470. For the same compound, in the series with ectromelia virus (ECTV) (2.5 mg/kg), the “MDD, Mean day of death” value is given as 13. For the same compound, the Mortality with ectromelia virus (ECTV) (2.5 mg/kg) is reported as 2/5; in the series with ectromelia virus (ECTV) (5 mg/kg), 0/5; with ectromelia virus (ECTV) (10 mg/kg) it was 0/5.
Regarding `CC(C)CCCCCCCCCCCCOCCCOP(=O)(O)CO[C@H](CO)Cn1ccc(N)nc1=O` [Compound 13M-TDP-CDV, 13-methyl-tetradecyloxypropyl cidofovir], the EC50 amounted to 200 nM in series [2], 400 nM in series [1] (setting [7]) and 130 nM in series [3]. This compound returned a CC50 in the series on HFF cells (Table 3, neutral-red uptake) of 41000 ± 2000 nM. The “MDD, Mean day of death” value in the series with ectromelia virus (ECTV) (2.5 mg/kg) is reported as 9.3. The Mortality in the series with ectromelia virus (ECTV) (2.5 mg/kg) is 4/5; with ectromelia virus (ECTV) (5 mg/kg), 0/5; with ectromelia virus (ECTV) (10 mg/kg), 0/5.
`CC(C)CCCCCCCCCCCCCCOCCOP(=O)(O)CO[C@H](CO)Cn1cnc2c(N)ncnc21` [15M-HDE-HPMPA, 3-(15-methylhexadceyloxy)ethyl (S)-HPMPA]: the concentration for a half-maximal effect (EC50) in [1] (setting [7]) came out at 12 nM.
As to “17-methyl-octadecyloxyethyl cidofovir [Compound 17M-ODE-CDV]”, the concentration giving a half-maximal response (EC50) turned out to be 50 nM in [2], 80 nM in series [1] (setting [7]) and 32 nM in series [3]. The compound also came in with a CC50 in the series with HFF cells (Table 3, neutral-red uptake) of 15000 ± 4000 nM.
With `CC(C)CCCCCCCCCCCCCCOCCCOP(=O)(O)CO[C@H](CO)Cn1cnc2c(N)ncnc21` [15M-HDP-(S)-HPMPA, 3-(15-methylhexadecyloxy)propyl (S)-HPMPA], the results for the EC50 in series [2] and in series [3] were 52 nM and 12 nM, respectively. In the series on HFF cells (Table 4, neutral-red uptake), the CC50 is 27500 nM. Besides, in the series on ectromelia virus (ECTV), the “activity relative to HDP-(S)-HPMPA in lethal ectromelia infection” value is “more active than HDP-(S)-HPMPA”. Moreover, in the series with ectromelia virus (ECTV) (2.5 mg/kg), the “MDD, Mean day of death” value is recorded as 14.3. For the same compound, the figures for the Mortality in the series on ectromelia virus (ECTV) (2.5 mg/kg), with ectromelia virus (ECTV) (5 mg/kg) and in the series with ectromelia virus (ECTV) (10 mg/kg) were 3/5, 0/5 and 0/5, respectively.
